From patent US20250205191A1, “R(-)-MDMA COMPOSITIONS AND METHODS OF TREATMENT” (EmpathBio, Inc., priority 2023, published 2025)

Key:
male C57BL/6J mice [1] = experiment: Mouse extinction of fear learning assay; format: in vivo; conditions: vs vehicle
Description: Extinction of fear learning in rodents is a useful assay to understand if compounds have the potential to enhance learning processes that may be involved in recovery from SAD and other stress and anxiety related disorders, due to its resemblance to exposure-based therapy in humans. […] Freezing behavior, an indicator of the fear response, was measured in the presence of the CS during the extinction training session (Day 1) and the day after (Day 2, Extinction Testing, in the absence of test article). Locomotor activity was measured during the initial 2-minute habituation period, prior to the presentation of the CS, on Days 1 and 2.

male C57BL/6J mice [2] = experiment: Mouse head twitch response (HTR); format: in vivo; conditions: 3 mg/kg IP, 30 min, vs vehicle control group
Description: Mouse Head Twitch (HTR) is a side-to-side rotational head movement in rodents that is widely employed as a behavioral measure of 5-HT2A receptor activation (Halberstadt and Geyer 2013). […] Animals with head mounted magnets were dosed intraperitoneally and immediately tested for HTR for 30 min using an automated magnetometer detection system (Halberstadt and Geyer 2013).

healthy volunteers [3] = experiment: Phase 1 clinical study, safety and tolerability; format: in vivo, human
Description: The primary endpoints assessed the safety, tolerability, pharmacokinetics (PK), and exploratory pharmacodynamic (PD) observations. Treatment-related adverse events (AEs) were in line with expectations (e.g., nausea at 29.2%, headache at 16.7%) and generally dose dependent.

healthy volunteers [4] = experiment: Phase 1 Spoken Intensity Rating Scale (SIRS); format: in vivo, human
Description: Beyond 8 hours postdose, mean SIRS scores remained ≤0.5 in all cohorts.

human 5-HT2B receptor = target: T1, human 5-HT2B receptor (Homo sapiens, UniProt P41595); experiment: 5-HT2B agonism, inositol monophosphate accumulation (HTRF), CHO-K1 recombinant cells; format: cell-based
T1 construct: expressed in transfected cells; host or cells: CHO-K1
T1 sequence (P41595 whole entry): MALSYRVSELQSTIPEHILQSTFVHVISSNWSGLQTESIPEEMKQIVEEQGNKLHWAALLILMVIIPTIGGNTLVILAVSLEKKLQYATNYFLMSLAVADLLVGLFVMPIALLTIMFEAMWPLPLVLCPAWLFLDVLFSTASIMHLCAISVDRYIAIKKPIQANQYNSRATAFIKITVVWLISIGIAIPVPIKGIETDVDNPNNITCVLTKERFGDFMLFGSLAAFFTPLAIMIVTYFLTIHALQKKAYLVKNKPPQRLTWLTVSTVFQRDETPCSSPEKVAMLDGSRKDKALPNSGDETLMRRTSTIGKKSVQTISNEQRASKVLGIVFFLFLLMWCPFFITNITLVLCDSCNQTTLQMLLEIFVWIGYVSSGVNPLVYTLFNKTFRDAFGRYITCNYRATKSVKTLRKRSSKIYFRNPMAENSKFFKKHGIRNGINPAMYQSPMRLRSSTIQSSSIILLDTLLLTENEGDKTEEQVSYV

healthy volunteers [5] = experiment: Phase 1 exploratory Visual Analog Scale (VAS); format: in vivo, human; conditions: vs placebo; dose-dependent pattern
Description: VAS measure changes in subjective experience that are typical in healthy human volunteer studies. These include experiences such as Happy, Open, Loving, Close to Others, Sociable, and Lonely.

human 5-HT2A receptor = target: T2, human 5-HT2A receptor (Homo sapiens, UniProt P28223); experiment: 5-HT2A agonism, inositol monophosphate accumulation (HTRF), CHO-K1 recombinant cells; format: cell-based
T2 construct: expressed in transfected cells; host or cells: CHO-K1
T2 sequence (P28223 whole entry): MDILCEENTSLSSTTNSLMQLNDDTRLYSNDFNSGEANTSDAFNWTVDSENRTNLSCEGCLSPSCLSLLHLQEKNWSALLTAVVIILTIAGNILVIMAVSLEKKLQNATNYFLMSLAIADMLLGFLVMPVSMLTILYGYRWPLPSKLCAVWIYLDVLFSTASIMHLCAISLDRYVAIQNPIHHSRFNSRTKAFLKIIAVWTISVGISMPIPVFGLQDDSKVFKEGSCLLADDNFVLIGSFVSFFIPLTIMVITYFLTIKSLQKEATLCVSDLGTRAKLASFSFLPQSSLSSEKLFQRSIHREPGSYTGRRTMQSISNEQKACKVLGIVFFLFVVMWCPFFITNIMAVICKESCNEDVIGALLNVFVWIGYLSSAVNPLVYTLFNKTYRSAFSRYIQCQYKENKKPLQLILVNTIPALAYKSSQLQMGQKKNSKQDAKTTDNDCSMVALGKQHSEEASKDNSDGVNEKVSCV

healthy volunteers [6] = experiment: Phase 1 Self-Compassion Scale (SCS); format: in vivo, human
Description: Self-compassion is defined as being open to and moved by one's own suffering, experiencing feelings of caring and kindness toward oneself, taking an understanding, non-judgmental attitude toward one's inadequacies and failures, and recognizing that one's own experience is part of the common human experience (Neff, K. D., 2003. The development and validation of a scale to measure self-compassion. Self and Identity, 2, 223-250). The Self-Compassion Scale is an assessment tool designed to measure three core components of self-compassion: self-kindness, common humanity and mindfulness. (SCS; Neff, K. D., 2011. Self-compassion: Stop beating yourself up and leave insecurity behind. New York, NY: Harper Collins) The total self-compassion score is the total of the scores of the sub-items: self-kindness, self-judgement (reversed), common humanity, isolation (reversed), mindfulness and over-identification (reversed).

[7] = single oral 75-225 mg, healthy participants

`CN[C@H](C)Cc1ccc2c(c1)OCO2` [R(−)-MDMA, R(−)-3,4-methylenedioxymethamphetamine] was tested, and the freezing behavior (male C57BL/6J mice [1]; 10 mg/kg IP once) was “significantly reduced freezing behavior on Day 2 only”, the locomotor activity (male C57BL/6J mice [1]; 10 mg/kg IP once) was “significantly increased activity on Day 1 only” and the freezing behavior (male C57BL/6J mice [1]; 17 mg/kg IP once) was “significant reductions of freezing behavior on Days 1 and 2”. For the same compound, the locomotor activity (male C57BL/6J mice [1]; 17 mg/kg IP once) was “significantly increased activity on Day 1 only”, the freezing behavior (male C57BL/6J mice [1]; 30 mg/kg IP once) was “significant reductions of freezing behavior on Days 1 and 2” and the “locomotor activity (activity counts)” value (male C57BL/6J mice [1]; 30 mg/kg IP once) was “significant increases in activity counts on Days 1 and 2”. The “head twitch response (HTR)” value (male C57BL/6J mice [2]) was “significantly increased”, the bruxism (healthy volunteers [3]; highest dose (225 mg)) was “observed in a single subject” and the peak body temperatures (healthy volunteers [3]; single oral 75-225 mg) was “within the normal range”. The “serious or severe AEs” value (healthy volunteers [3]; single oral 75-225 mg) was “no serious or severe AEs were observed”, the study discontinuations (healthy volunteers [3]; single oral 75-225 mg) was “no study discontinuations” and the “treatment-related adverse event: headache” value (healthy volunteers [3]; [7]) was 16.7%. The “treatment-related adverse event: nausea” value (healthy volunteers [3]; [7]) was 29.2%, the “blood pressure and heart rate” value (healthy volunteers [3]; single oral 75-225 mg, limited dose dependency) was “Non-clinically significant increases” and the SIRS dose response (healthy volunteers [4]; 75-225 mg oral) was “strong dose response”. For the same compound, the “mean SIRS scores” value (healthy volunteers [4]; all cohorts, beyond 8 hours postdose) was no more than 0.5, the “mean SIRS scores” value (healthy volunteers [4]; fasted state, each cohort, 1 to 2 hours postdose) was “small nominal increases from Baseline” and the agonism in words (human 5-HT2B receptor; 5-HT2B receptors) was “high potency full agonism”. For the same compound, the EC50 (human 5-HT2B receptor; 5-HT2B, CHO-K1, IP accumulation) was 0.053 µM, the “Efficacy (% of a-Me-5-HT response)” value (human 5-HT2B receptor; 5-HT2B, relative to α-Me-5-HT at its EC100) was 91.8% and the “VAS scores for positive affect (happy, loving, openness, less loneliness)” value (healthy volunteers [5]) was “increased VAS scores compared to placebo”. The agonism in words (human 5-HT2A receptor; 5-HT2A receptors) was “moderate potency partial agonism”, the EC50 (human 5-HT2A receptor; 5-HT2A, CHO-K1, IP accumulation) was 3.34 µM and the “Efficacy (% of a-Me-5-HT response)” value (human 5-HT2A receptor; 5-HT2A, relative to α-Me-5-HT at its EC100) was 69.3%. The “SCS self-kindness score, mean” value (healthy volunteers [6]; 225 mg group, 1 week of follow-up) was 4.1, the “SCS self-kindness score, mean at baseline” value (healthy volunteers [6]; 225 mg group, before dosing) was 3.9 and the “self-compassion (self-kindness) scores” value (healthy volunteers [6]; higher doses, 1 week of follow-up) was “significantly increased”.
